Assay results from publication PMC7419507, “In vitro Cas9-assisted editing of modular polyketide synthase genes to produce desired natural product derivatives” (Nature Communications, 2020).

Tested on: Jurkat, SKOV-3 and MESO-1 cells
Experiment: Cytotoxicity assay, statements for all tested cell lines together
Type: cell-based
Settings: Jurkat, SKOV-3 and MESO-1 cells, 72 h
Experimental: Jurkat cells were cultured in RPMI1640 medium supplemented with 10% foetal bovine serum, penicillin (50 U/ml), streptomycin (50 μg/ml), and Glutamax. SKOV-3 cells were cultured in DMEM medium supplemented with 10% fetal bovine serum, penicillin (50 U/ml), and streptomycin (50 μg/ml). MESO-1 cells were cultured in RPMI1640 medium supplemented with 10% fetal bovine serum, penicillin (50 U/ml), and streptomycin (50 μg/ml). All cell lines were seeded in a 384-well plate at a density of 1000 cells/well in 20 μl of media and incubated at 37 °C in a humidified incubator with 5% CO2. After 4 h, 2-fold dilution samples resolved in DMSO were added to the cell culture at the concentration of 0.5% (0.1 μl) and incubated for 72 h. Cell viabilities were measured using a CellTiter-Glo luminescent cell viability assay and EnVision multilabel plate reader.

COc1cc([C@@H]2c3cc4c(cc3[C@@H](O[C@@H]3O[C@@H]5CO[C@@H](C)O[C@H]5[C@H](O)[C@H]3O)[C@H]3COC(=O)[C@H]23)OCO4)cc(OC)c1O [etoposide, reference compound]
Effect on cell viability, in words: typical cytotoxic activities
